A short description of this data set: n-octanol/PBS distribution coefficient (shake-flask) of 177Lu-DOTA-ALBs. In kind it is physicochemical. As to conditions: n-octanol/PBS pH 7.4. On the procedure:
The radiolabeling of DOTA-ALBs was carried out under standard labeling conditions at pH 4.5. The ligands (10−100 μM) were mixed with lutetium-177 (no-carrier added [^177Lu]LuCl3; in 0.04 M HCl; ITM GmbH Medical Isotopes, Munich, Germany) to reach molar activities of 25–50 MBq/nmol (Supplementary Materials Section S2). An analytical HPLC system equipped with a C18 column and a radioactivity detector was used for quality control of the radiolabeled DOTA-ALBs (Supplementary Materials Section S2). The ^177Lu-DOTA-ALBs were used for preclinical investigations without separation of the labeled from the unlabeled fraction. The radiolytic stability of the ^177Lu-DOTA-ALBs (50 MBq/nmol) diluted in phosphate-buffered saline (PBS; 100 MBq/500 μL) was assessed in vitro in the absence and presence of L-ascorbic acid (Supplementary Materials Section S3). The n-octanol/PBS distribution coefficients (logD values) were determined using a shake-flask method according to an established protocol (Supplementary Materials Section S4). The logD values were analyzed using a one-way ANOVA with Tukey’s multiple comparisons post-test using GraphPad Prism software (version 8). […]
Purpose: The n-octanol/PBS distribution coefficients (logD values) were determined for all 177Lu-DOTA-ALBs in order to assess their hydrophilic/hydrophobic properties.
Methods: The n-octanol/PBS distribution coefficients (logD values) of the 177Lu-DOTA-ALBs were determined as previously described. […]
The vials were vortexed vigorously for 1 min followed by centrifugation for 6 min at 560 rcf for phase separation. An aliquot was taken from each phase and measured in a γ-counter (Perkin Elmer, Wallac Wizard 1480, Waltham, MA, USA). The distribution coeffi-cients were calculated as the logarithm of the ratio of counts per minute (cpm) measured in the n-octanol phase relative to the cpm measured in the PBS phase. […]
Methods: Relative binding affinities of 177Lu-DOTA-ALBs to mouse (MSA) and hu-man (HSA) serum albumin in the respective blood plasma were determined using an ul-trafiltration assay according to a previously described procedure. […]
Turning to `O=C(O)CN1CCN(CC(=O)O)CCN(CC(=O)NCCC(=O)N[C@@H](CCCCNC(=O)c2ccc(CNC(=O)CCCCc3ccc(I)cc3)cc2)C(=O)O)CCN(CC(=O)O)CC1.[177Lu]` [[^177Lu]Lu-DOTA-ALB-25], the logD value is −2.39 ± 0.04.

Molecule `O=C(O)CN1CCN(CC(=O)O)CCN(CC(=O)NCCC(=O)N[C@@H](CCCCNC(=O)c2ccc(CNC(=O)CCCc3ccc(I)cc3)cc2)C(=O)O)CCN(CC(=O)O)CC1.[177Lu]` [[^177Lu]Lu-DOTA-ALB-3] came in with a logD value of −2.64 ± 0.04. Take `O=C(O)CN1CCN(CC(=O)O)CCN(CC(=O)NCCC(=O)N[C@@H](CCCCNC(=O)CCCCc2ccc(I)cc2)C(=O)O)CCN(CC(=O)O)CC1.[177Lu]` [[^177Lu]Lu-DOTA-ALB-24]: the logD value is −2.68 ± 0.06.

The values above are taken from PMC10486429, “Investigations Using Albumin Binders to Modify the Tissue Distribution Profile of Radiopharmaceuticals Exemplified with Folate Radioconjugates” (Cancers, 2023).
